Data reported in ChEMBL document CHEMBL1201862, “PubChem BioAssay data set” (2004).
Active and inactive are the calls of the source. No stated cut-off is given here; in the data, actives have a measured IC50 and inactives only a lower limit.

Target: Envelope glycoprotein gp160 (Human immunodeficiency virus 1, UniProt Q6QLK5)
Assay: cell-free HIV fusion peptide-binding blockers – biochemical, uHTS, fluorescence dequenching, […] (AID 1986)

Chain of Envelope glycoprotein gp160 (Q6QLK5 whole entry, the tested form may be a part): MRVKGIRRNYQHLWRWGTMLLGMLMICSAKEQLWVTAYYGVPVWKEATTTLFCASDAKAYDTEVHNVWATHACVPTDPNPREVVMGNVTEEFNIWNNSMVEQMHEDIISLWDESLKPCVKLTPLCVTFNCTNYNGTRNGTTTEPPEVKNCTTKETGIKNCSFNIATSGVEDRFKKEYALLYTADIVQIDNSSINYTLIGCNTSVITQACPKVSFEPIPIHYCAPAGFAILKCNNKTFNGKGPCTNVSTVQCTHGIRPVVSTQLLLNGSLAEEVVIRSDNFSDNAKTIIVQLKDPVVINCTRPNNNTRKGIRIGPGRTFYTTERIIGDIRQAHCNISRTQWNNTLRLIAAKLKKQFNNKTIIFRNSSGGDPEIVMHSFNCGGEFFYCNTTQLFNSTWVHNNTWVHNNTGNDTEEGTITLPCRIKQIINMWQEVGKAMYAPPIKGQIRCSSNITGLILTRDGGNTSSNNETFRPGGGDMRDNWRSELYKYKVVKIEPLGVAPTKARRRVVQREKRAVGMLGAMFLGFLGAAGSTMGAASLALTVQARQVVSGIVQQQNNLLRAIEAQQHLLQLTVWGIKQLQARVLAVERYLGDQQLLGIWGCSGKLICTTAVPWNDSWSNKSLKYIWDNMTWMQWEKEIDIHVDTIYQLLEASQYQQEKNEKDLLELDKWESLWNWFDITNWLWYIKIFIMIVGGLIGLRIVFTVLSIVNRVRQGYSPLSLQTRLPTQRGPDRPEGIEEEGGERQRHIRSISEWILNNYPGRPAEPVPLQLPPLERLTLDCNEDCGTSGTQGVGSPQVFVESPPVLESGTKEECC

**Q.** COc1cccc(NS(=O)(=O)c2ccc3c(c2)C2C=CCC2C(c2ccc(C(=O)O)cc2)N3)c1 (stereo not drawn) was tested. Which IC50 did it give?
**A.** 11.9 µM (active)

**Q.** For COc1ccc(-c2nn(-c3ccccc3)cc2/C=C2/SC(=S)N(CCC(=O)O)C2=O)c(C)c1, which IC50 is on record?
**A.** 12.5 µM (active)

**Q.** For CCS(=O)(=O)C1=NN2C(=N)/C(=C\c3ccc(OCCOc4cccc(OC)c4)c(OC)c3)C(=O)N=C2S1, which IC50 is on record?
**A.** 9.24 µM (active)
